Test results as given in patent US4022912A, “Use of 1-decarboxy-1-hydroxymethyl-PGE1 in therapeutic bronchodilation” (priority 1976, dated 1977).
Entries after “also recorded” stand apart in the source; their conditions may differ. Where two headings read alike, the source gives them in different places.

Experiments:
[1] = system: Guinea Pig Tracheal Tissue; test: Relaxation of guinea pig tracheal tissue in vitro; type: cell-based; details: for Relaxation (×80) (± S.E.): Table B, standard error in parentheses
Protocol: Male guinea pigs weighing 200-500 g were killed by a blow on the head. A 20 mm length of trachea was dissected from each of the animals, transferred to a petri dish containing Krebs' solution aerated with 95% O2 and 5% CO2 at 37° C., and cut longitudinally opposite the tracheal muscle. The tissue was then cut transversely three quarters of the distance across; a second cut in the opposite direction again three quarters of the distance across the tissue was made, and the procedure was continued for the whole tissue. The ends of the trachea were pulled to form a zig-zag shaped strip. The tracheal strips used in the experiment were approximately 30 mm when extended under 0.25-0.5 g load in a tissue bath. Cotton thread was tied to one end of the tissues, and linen thread to the other. The tissues were attached via the linen thread to a glass hook in a 5 ml isolated tissue bath containing Krebs' solution at 37° C. aerated with a mixture of 95% O2 and 5% CO2. The opposite ends were attached via cotton thread to an isotonic transducer. The load on the transducer lever was small, usually 0.3 g, with a range of 0.25-0.5 g; and the magnification high, 80-fold using an appropriate twin-channel pen recorder. A minimum of thirty minutes was allowed before applying a drug to the tissues. Drugs were then applied (in volumes of 0.5 ml) at thirty minute intervals, being in contact with the tissue for five minutes followed by an overflow washout time of twenty seconds.

[2] = system: Histamine-Induced Bronchoconstriction; test: Inhibition of histamine-induced bronchoconstriction in the anesthetized guinea pig in vivo by intravenous administration; details: for ED50: Cavia porcellus, iv, i.v. 15 seconds prior to histamine
Protocol: (§1) Male albino guinea pigs (400-600 g; Dunkin-Hartley Strain) were anesthetized with pentobarbitone sodium (60 mg/kg intraperitoneally).
(§2) Trachea, external jugular vein and carotid artery were cannulated for recording ventilation, intravenous administration of drugs, and blood pressure respectively. The animals were artificially respired throughout the experiment. Electrocardiograms were also recorded. Respiratory flow was charted on a twin-channel recorder fixed to an SE differential pressure transducer.
(§3) Histamine was administered intravenously at 5 minute intervals. The test drug was administered intravenously 15 seconds prior to histamine in order to inhibit bronchoconstriction.

[3] = system: Histamine-Induced Bronchoconstriction; test: Inhibition of intravenous histamine-induced bronchoconstriction in the anesthetized guinea pig by inhalational administration; type: in vivo
Protocol: as §1, §2, §3
Details of the procedure of this example are the same as those in preceding Example 2 with the exception that the test compounds were delivered in aerosol form into the trachea of the test aminals.

[4] = system: Convulsions Induced by Inhaled Histamine; test: Delay of convulsions induced by inhaled histamine in conscious guinea pigs; type: in vivo, guinea pig
Protocol: Conscious male albino guinea pigs (Dunkin-Hartley strain) weighing 200-300 g were placed (singly) in a 5-liter transparent chamber for 1 minute and subjected to an aerosol of vehicle or test drug in solution, plus histamine (1% w/v).
The time from the beginning of the administration of the aerosol to the start of the first convulsion (when the guinea pig is immediately removed from the aerosol) is the pre-convulsion time. Twenty-four hours later the general procedure was repeated. Guinea pigs treated with the test drug on the first day were treated with vehicle on the second day and vice versa in a cross-over design. Maximum time allowed in the aerosol was 10 minutes. An ultrasonic humidifier was used to produce the aerosol.

Guinea Pig Ileum = test: Antagonism to PGE1 in the guinea pig ileum in vitro; type: cell-based; details: for antagonism of the effects of PGE1 in the guinea pig ileum: in vitro
Protocol: Preparations were placed in tissue chambers filled with Ringer-Tyrode solution at 37° C., bubbled with a mixture of 95% O2 and 5% CO2, and arranged for isometric recording with force displacement transducers. The segments were stretched to an initial tension of 1 g, and responses to a test concentration of acetylcholine (0.1 mcg/ml) were obtained every 5 minutes until two similar responses were observed (usually after four administrations). Responses to PGE1
(0.1 mcg/ml) were obtained and recorded at 5 minute intervals before and after 100 seconds of incubation with 0.1 and 1.0 mcg/ml of 1-decarboxy-1-hydroxymethyl-PGE1. Any direct contractile effect of the test compound was recorded and evaluated in terms of mean values in grams of tension developed at each concentration. Responses to the agonist observed after incubation with the test compound were expressed as percent of control responses. All drugs were administered in a volume of 0.1 ml.

Conscious Cat = test: Tracheobronchial irritancy (coughing) in conscious cats after inhalation; type: in vivo; details: for tracheobronchial irritancy compared with PGE1: inhalation, equivalent concentrations/dosages
Protocol: A test drug was given at concentrations from 0.01 μg/ml (up to 100 μg/ml) at two hour intervals exposing each cat for up to 10 minutes each time. If coughing occurred no further challenge was given that day. Two to three days later the other test substance was given. The aerosol was delivered from an ultrasonic nebulizer via rubber tubing connected to a face mask fitted to the cat. The animal was mildly restrained. Coughing was noted by an observer and also monitored by a microphone connected to a tape recorder.

[5] = system: mobilization of free fatty acids induced by epinephrine; details: U.S. Pat. No. 3,636,120 (Pike); cited from earlier work
platelet aggregation = details: U.S. Pat. No. 3,636,120 (Pike); cited from earlier work
[6] = listed as 1-decarboxy-1-methylhydroxy-PGE1
[7] = 0.10 μg/ml of stock solution aerosolized
[8] = 1.00 μg/ml of stock solution aerosolized

SMILES: CCCCC[C@H](O)/C=C/[C@H]1[C@H](O)CC(=O)[C@@H]1CCCCCCCO [1-Decarboxy-1-Hydroxymethyl-PGE1, 15(S)-1,11α,15α-trihydroxy-9-oxo-13-trans-prostene]
- Relaxation (×80) (± S.E.) ([1]; 0.001 μg/ml): 24 (18) mm
- Relaxation (×80), 1st Tissue ([1]; 0.01 μg/ml): 30 mm
- Relaxation (×80), 2nd Tissue ([1]; 0.01 μg/ml): 30 mm
- Relaxation (×80) (± S.E.) ([1]; 0.010 μg/ml): 59 (30) mm
- Relaxation (×80), Mean Response ([1]; 0.01 μg/ml): 30 mm
- Relaxation (×80), 1st Tissue ([1]; 0.10 μg/ml): 113 mm
- Relaxation (×80), 2nd Tissue ([1]; 0.10 μg/ml): 93 mm
- Relaxation (×80) (± S.E.) ([1]; 0.100 μg/ml): 79 (21) mm
- Relaxation (×80), Mean Response ([1]; 0.10 μg/ml): 104 mm
- Relaxation (×80), 1st Tissue ([1]; 1.00 μg/ml): 153 mm
- Relaxation (×80), 2nd Tissue ([1]; 1.00 μg/ml): 173 mm
- Relaxation (×80) (± S.E.) ([1]; 1.000 μg/ml): 104 (14) mm
- Relaxation (×80), Mean Response ([1]; 1.00 μg/ml): 163 mm
- Relaxation (×80), 1st Tissue ([1]; 10.00 μg/ml): 146 mm
- Relaxation (×80), 2nd Tissue ([1]; 10.00 μg/ml): 199 mm
- Relaxation (×80) (± S.E.) ([1]; 10.000 μg/ml): 105 (35) mm
- Relaxation (×80), Mean Response ([1]; 10.00 μg/ml): 172 mm
- times more potent than PGE1 in relaxing guinea pig tracheal tissue ([1]; at 0.001 μg/ml, relative to PGE1): 24 times
- comparative effectiveness vs PGE1 in relaxation of tracheal tissue ([1]; equivalent concentrations): clearly more effective at equivalent concentrations
- times more potent than PGE1 in relaxing guinea pig tracheal tissue in vitro ([1]; relative to PGE1, no concentration stated for this clause): 24 times
- Ratio of ID50 Values (A/B) ([2]; A = PGE1, B = 1-decarboxy-1-hydroxymethyl-PGE1, Experiment No. 1): 1.14
- Ratio of ID50 Values (A/B) ([2]; A = PGE1, B = 1-decarboxy-1-hydroxymethyl-PGE1, Experiment No. 2): 1.25
- Ratio of ID50 Values (A/B) ([2]; A = PGE1, B = 1-decarboxy-1-hydroxymethyl-PGE1, Experiment No. 3): 1.17
- Ratio of ID50 Values (A/B) ([2]; A = PGE1, B = 1-decarboxy-1-hydroxymethyl-PGE1, Experiment No. 4): 1.14
- Ratio of ID50 Values (A/B) ([2]; A = PGE1, B = 1-decarboxy-1-hydroxymethyl-PGE1, Experiment No. 5): 1.05
- Ratio of ID50 Values (A/B), Mean ([2]; A = PGE1, B = 1-decarboxy-1-hydroxymethyl-PGE1, mean): 1.17
- ED50 ([2]; Experiment No. 1, read-out: Dose I.V. inhibiting bronchoconstriction by 50% (ID50)): 0.529 µg/kg
- ED50 ([2]; Experiment No. 2, read-out: Dose I.V. inhibiting bronchoconstriction by 50% (ID50)): 0.733 µg/kg
- ED50 ([2]; Experiment No. 3, read-out: Dose I.V. inhibiting bronchoconstriction by 50% (ID50)): 0.225 µg/kg
- ED50 ([2]; Experiment No. 4, read-out: Dose I.V. inhibiting bronchoconstriction by 50% (ID50)): 0.756 µg/kg
- ED50 ([2]; Experiment No. 5, read-out: Dose I.V. inhibiting bronchoconstriction by 50% (ID50)): 0.193 µg/kg
- ED50 ([2]; mean of experiments 1-5, read-out: Dose I.V. inhibiting bronchoconstriction by 50% (ID50), Mean): 0.495 µg/kg
- Precent Inhibition of Histamine-Induced Bronchoconstriction ([3]; 0.001 μg/ml in stock solution aerosolized, inhalation): 24%
- times more effective than PGE1 in inhibition of histamine-induced bronchoconstriction ([3]; at 0.001 μg/ml, guinea pig in vivo, relative to PGE1): 4 times
- Prolongation of Preconvulsion Time ([4]; Expt. 1A, 0.10 μg/ml stock solution aerosolized, P <0.02): 99 s
- Prolongation of Preconvulsion Time ([4]; Expt. 1A, 0.50 μg/ml stock solution aerosolized, P <0.001): 140 s
- Prolongation of Preconvulsion Time ([4]; Expt. 1A, 2.50 μg/ml stock solution aerosolized, P <0.01): 141 s
- Prolongation of Preconvulsion Time ([4]; Expt. 1A, 10.00 μg/ml stock solution aerosolized, P <0.02): 181 s
- Prolongation of Preconvulsion Time ([4]; Expt. 2A, 0.01 μg/ml stock solution aerosolized, P <0.01): 54 s
- Prolongation of Preconvulsion Time ([4]; Expt. 2A, 0.10 μg/ml stock solution aerosolized, P <0.05): 41 s
- Prolongation of Preconvulsion Time ([4]; Expt. 2A, 1.00 μg/ml stock solution aerosolized, P <0.02): 108 s
- Prolongation of Preconvulsion Time ([4]; Expt. 2A, 10.00 μg/ml stock solution aerosolized, P <0.02): 198 s
- Prolongation of Preconvulsion Time ([4]; Expt. 2A, 25.00 μg/ml stock solution aerosolized, P <0.001): 302 s
- Direct Effect, gm tension (Guinea Pig Ileum; 0.1 mcg/ml): 0.0 gm tension
- Direct Effect, gm tension (Guinea Pig Ileum; 1.0 mcg/ml): 0.0 gm tension
- inhibition at 0.1 µg/mL (Guinea Pig Ileum; Cavia porcellus, 100 s, read-out: %-Blockade of Tissue Response to 0.1 mcg/ml of PGE1, 0.1 mcg/ml, 100 seconds of incubation): 38%
- inhibition at 1 µg/mL (Guinea Pig Ileum; Cavia porcellus, 100 s, read-out: %-Blockade of Tissue Response to 0.1 mcg/ml of PGE1, 1.0 mcg/ml, 100 seconds of incubation): 100%
- direct effect on the tissue (Guinea Pig Ileum; at the tested concentrations): no effect on the tissue at the tested concentrations
- antagonism of the effects of PGE1 in the guinea pig ileum (Guinea Pig Ileum): inhibits the effects of PGE1 in guinea pig ileum tissue in vitro
- antagonism of the effects of PGE1 in the guinea pig ileum (Guinea Pig Ileum; [6]): antagonizes the effects of PGE1 in the guinea pig ileum
- Incidence of Coughing in a Female (F) Cat (Conscious Cat; [7]): 0/3
- Incidence of Coughing in a Male (M) Cat (Conscious Cat; [7]): 0/3
- Incidence of Coughing in a Female (F) Cat (Conscious Cat; [8]): 1/3
- Incidence of Coughing in a Male (M) Cat (Conscious Cat; [8]): 0/3
- Incidence of Coughing in a Male (M) Cat (Conscious Cat; 10.00 μg/ml of stock solution aerosolized): 0/3
- Incidence of Coughing in a Male (M) Cat (Conscious Cat; 100.00 μg/ml of stock solution aerosolized): 0/2
- tracheobronchial irritancy compared with PGE1 (Conscious Cat): much lower incidence of tracheobronchial irritancy than does PGE1 at equivalent concentrations; also recorded: does not cause tracheal-bronchial irritation at equivalent dosages
- tracheobronchial irritancy compared with PGE1 (Conscious Cat; [6]): less irritating than PGE1
- effect on mobilization of free fatty acids induced by epinephrine [5]: antagonizes mobilization of free fatty acids induced by epinephrine
- effect on platelet aggregation (platelet aggregation): inhibits platelet aggregation
